Laboratory results taken from paper PMC10470909, “cis-Decalin-containing tetramic acids as inhibitors of insect steroidogenic glutathione S-transferase Noppera-bo” (PLOS ONE, 2023).
Entries after “also recorded” stand apart in the source; their conditions may differ. Like-named read-outs stand apart in the source and are kept apart here.

Experiments:
[1] = system: Pyricularia oryzae kita-1; experiment: microbe, parasite or virus in culture; assay type: cell-based; details: for IC50: Pyricularia oryzae, KITA1, read-out: Antimicrobial activity (IC50, μM) Po
[2] = system: Staphylococcus aureus 209; experiment: Antimicrobial assay, S. aureus; assay type: cell-based
Escherichia coli HO141 = experiment: Antimicrobial assay, E. coli; assay type: cell-based
[3] = In vitro cytotoxicity, HeLa; assay type: cell-based, human; details: human, HeLa cells (human cervical epidermoid carcinoma cell line)
Description: (§1) In vitro cytotoxicity and antimicrobial assays were conducted as previously reported.

[4] = system: Plasmodium falciparum 3D7; experiment: Antimalarial assay, P. falciparum; assay type: cell-based
[5] = In vitro cytotoxicity, HL-60; assay type: cell-based; details: human, HL-60 cells (human promyelocytic leukemia cell line)
Description: as §1

[6] = system: Aspergillus fumigatus Af293; experiment: Antimicrobial assay, A. fumigatus; assay type: cell-based
Candida albicans JCM1542 = experiment: Antimicrobial assay, C. albicans; assay type: cell-based
[7] = In vitro cytotoxicity, src^ts-NRK; assay type: cell-based, rat; details: rat; src^ts-NRK cells
Description: as §1

HIV-1 integrase = system: HIV-1 integrase; parameters: method as in earlier work; details: cited from earlier work
[8] = system: mitochondrial respiration in HeLa cells; experiment: Measurement of mitochondrial respiration (OCR/ECAR, Seahorse XFe96 extracellular flux analyzer); details: 6 min after sample treatment
Description: Changes in oxygen consumption rate (OCR) and extracellular acidification rate (ECAR) were measured using a Seahorse XFe96 analyzer (Agilent, CA, USA).
To confirm this, the effect of 1 on energy metabolism was evaluated using an extracellular flux analyzer, which can simultaneously measure two metabolic properties: oxygen consumption rate (OCR) for an indicative of OXPHOS and extracellular acidification rate (ECAR) for that of glycolysis [20].
Percentage changes in OCR and ECAR (relative to their respective baseline values) induced by test compounds were calculated from S14 Fig. Each data point represents the mean ± standard deviation value at 6 min after sample treatment (n = 3). Note that decreasing OCR and increasing ECAR is a typical phenotype characteristic to mitochondrial respiration inhibitors [20].
Real-time measurements of the OCR and ECAR in HeLa cells were performed after treating the cells with different concentrations of the test samples. To perform the Seahorse XF Cell Mito Stress Test, the cells were treated with oligomycin A (OMA, 1 μM), FCCP (0.125 μM), and rotenone/antimycin A (R/A, 1 μM each) at the indicated times. Data are mean ± s.d. (n = 3 technical replicates) from one representative experiment out of three independent experiments.

[9] = system: HeLa, human cervical epidermoid carcinoma cell line; experiment: In vitro cytotoxicity, HeLa; assay type: cell-based; details: HeLa cells
Description: as §1

[10] = system: src^ts-NRK, normal rat kidney cells infected with ts25; experiment: In vitro cytotoxicity, src^ts-NRK; assay type: cell-based
Description: as §1

Solubility in solvents = assay type: physicochemical; details: hexane, CHCl3, EtOAc, acetone, MeOH, MeCN, DMSO, or H2O
Description: Its molecular formula was determined as C24H31NO6 using HRESITOFMS.

[11] = Staphylococcus aureus, 209, read-out: Antimicrobial activity (IC50, μM) Sa
[12] = Escherichia coli, HO141, read-out: Antimicrobial activity (IC50, μM) Ec
[13] = Plasmodium falciparum, 3D7, read-out: Antimicrobial activity (IC50, μM) Pf
[14] = Aspergillus fumigatus, AF293, read-out: Antimicrobial activity (IC50, μM) Af
[15] = Candida albicans, JCM1542, read-out: Antimicrobial activity (IC50, μM) Ca
[16] = Staphylococcus aureus 209, read-out: Antimicrobial activity (IC50, μM) Sa
[17] = Escherichia coli HO141, read-out: Antimicrobial activity (IC50, μM) Ec
[18] = Plasmodium falciparum 3D7, read-out: Antimicrobial activity (IC50, μM) Pf
[19] = Aspergillus fumigatus Af293, read-out: Antimicrobial activity (IC50, μM) Af
[20] = Candida albicans JCM1542, read-out: Antimicrobial activity (IC50, μM) Ca

Row | SMILES | IC50 [1] [µM] | IC50 [2, 11] [µM] | IC50 (Escherichia coli HO141; [12]) [µM] | IC50 [3] [µM] | IC50 [4, 13] [µM] | IC50 [5] [µM] | IC50 [6, 14] [µM] | IC50 (Candida albicans JCM1542; [15]) [µM] | IC50 [7] [µM] | further results
1 | C/C=C/C=C/[C@@H]1C(C)=C[C@@H]2C[C@@H](C)CC[C@H]2[C@]1(C)C(=O)C1=C(O)C(CO)NC1=O (some centres unmarked) [Compound 6] | 5.5 | 3.8 | > 70 | > 70 | 23 | 12 | > 70 | 65 | > 70 | –
2 | C/C=C/[C@@H]1C=C[C@@H]2C[C@H](C)CC[C@H]2[C@]1(C)C(=O)C1=C(O)[C@H](CO)N(C)C1=O [Compound 1, equisetin] | 0.15 | – | – | 35 | – | 12 | – | – | 20 | HIV-1 integrase inhibitory activity (in words) (HIV-1 integrase): inhibit HIV-1 integrase activity approximately equally; IC50 [2, 16]: 1.4 µM; change in extracellular acidification rate (ECAR) [8]: increase in ECAR; change in oxygen consumption rate (OCR) [8]: decrease in OCR; IC50 (Escherichia coli HO141; [17]): 13 µM; IC50 [4, 18]: 12 µM; IC50 [6, 19]: 29 µM; IC50 (Candida albicans JCM1542; [20]): 29 µM
3 | C/C=C/[C@H]1C=C[C@H]2C[C@H](C)CC[C@H]2[C@]1(C)C(=O)C1=C(O)[C@H](CO)N(C)C1=O [Compound 3, cis-equisetin] | 0.46 | – | – | 46 | – | 14 | – | – | 35 | fold lower activity compared with that of 1, P. oryzae ([1]; growth inhibitory activity against P. oryzae, relative to 1): 3 fold; IC50 [2, 16]: 5.6 µM; fold lower activity compared with that of 1, S. aureus ([2]; growth inhibitory activity against S. aureus, relative to 1): 4 fold; IC50 (Escherichia coli HO141; [17]): 20 µM; IC50 [4, 18]: 13 µM; IC50 [6, 19]: 40 µM; IC50 (Candida albicans JCM1542; [20]): 40 µM
4 | CC1=C[C@H]2C[C@@H](C)CC[C@@H]2[C@@](C)(C(=O)C2=C(O)[C@@H](CO)N(C)C2=O)[C@H]1/C=C/C=C/CO [Compound 7] | 12 | 1.4 | 21 | 28 | 4.7 | 22 | > 70 | > 70 | – | –
5 | C/C=C/C=C/[C@@H]1C(C)=C[C@@H]2C[C@@H](C)CC[C@@H]2[C@@]1(C)C(=O)C1=C(O)[C@@H](CO)NC1=O [Compound 4, N-demethyl-cis-phomasetin] | 2 | 6 | 1.5 | > 75 | 13 | 22 | 58 | 9 | > 75 | cytotoxicity against HeLa (in words) [9]: no cytotoxicity; cytotoxicity against src^ts-NRK (in words) [10]: no cytotoxicity
6 | C/C=C/C=C/[C@H]1C(C)=C[C@H]2C[C@@H](C)CC[C@@H]2[C@@]1(C)C(=O)C1=C(O)[C@@H](CO)N(C)C1=O [Compound 2, phomasetin] | 0.044 | 0.14 | 1.3 | 6.1 | 1.8 | 3.4 | 21 | 21 | 11 | HIV-1 integrase inhibitory activity (in words) (HIV-1 integrase): inhibit HIV-1 integrase activity approximately equally
7 | CC1=C[C@@H]2C[C@@H](C)CC[C@@H]2[C@@](C)(C(=O)C2=C(O)[C@@H](CO)NC2=O)[C@@H]1/C=C/C=C/C(=O)O [Compound 8] | > 70 | 63 | 28 | > 70 | 26 | > 70 | > 70 | > 70 | > 70 | solubility (in words) (Solubility in solvents): not soluble in any solvent; also recorded: too low
8 | C/C=C/C=C/[C@H]1C(C)=C[C@H]2C[C@@H](C)CC[C@@H]2[C@@]1(C)C(=O)C1=C(O)[C@@H](CO)NC1=O [Compound 5, N-demethylphomasetin] | 1.3 | 0.2 | 2.5 | 40 | 4.8 | 11 | 9.8 | 3.8 | 63 | –
